Assays:
Format in all cases: cell-based
rat DRR = biological target: T1, rat DRR (Rattus norvegicus, UniProt Q8R4G1); assay: FLIPR calcium mobilization assay (Fluo-3), HEK-293 cells expressing rat DRR
T1 construct: expressed in transfected cells
T1 sequence (Q8R4G1 1-323): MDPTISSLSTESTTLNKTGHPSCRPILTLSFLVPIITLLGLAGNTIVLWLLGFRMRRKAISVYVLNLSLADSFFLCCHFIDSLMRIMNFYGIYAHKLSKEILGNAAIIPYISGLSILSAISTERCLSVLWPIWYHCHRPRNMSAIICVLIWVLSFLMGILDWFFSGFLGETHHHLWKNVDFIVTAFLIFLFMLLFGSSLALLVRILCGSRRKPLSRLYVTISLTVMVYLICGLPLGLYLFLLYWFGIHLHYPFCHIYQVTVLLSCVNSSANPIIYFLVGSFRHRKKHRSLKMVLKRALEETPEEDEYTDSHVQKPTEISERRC
Experimental: (§1) REK-293 cells were transfected with a mammalian expression construct coding for the rat and human DRRs (pcDNA 3.0 vector, Invitrogen) using the Superfect reagent (Qiagen). A stable receptor pool of DRR was developed by applying a selection marker (G418, 0.9 mg/ml) and the cells were maintained in this selection medium. The presence of mRNA specific for clone DRR was assessed by Northern blot analysis and by the reverse transcriptase polymerase chain reaction (RT-PCR).
(§2) In order to identify the ligand of clone rat and human DRRs, a collection of peptide and non-peptide ligands was obtained from commercial sources (Sigma, CalBiochem, American Peptide Company, Bachem, RBI, Phoenix). The compounds were dissolved in water/DMSO at 3 μM and placed in 96 well microplates. A total of 1000 compounds (peptides and non-peptides) were prepared and tested.
(§3) A functional assay was performed with FLIPR (Fluorescent Imaging Plate Reader, Molecular Devices) using the fluorescent calcium indicator Fluo-3 (Molecular Probes) on a 96 well platform. BEK-293 cells, either expressing the receptor or wild type cells, were loaded with Fluo-3 as follows. […] The cells were analyzed using the FLIPR system to measure the mobilization of intracellular calcium in response to different compounds.

[1] = test system: parental HEK-293 cells (non-transfected); assay: FLIPR calcium mobilization assay (Fluo-3), parental (non-transfected) HEK-293 cells; details: wild type / parental HEK-293 cells, compounds dissolved at 3 μM
Experimental: as §2
A functional assay was performed with FLIPR (Fluorescent Imaging Plate Reader, Molecular Devices) using the fluorescent calcium indicator Fluo-3 (Molecular Probes) on a 96 well platform. BEK-293 cells, either expressing the receptor or wild type cells, were loaded with Fluo-3 as follows. Stable HEK-293 clones expressing rat and human DRR or parental cells were plated at a density of 10,000 cells/well in a 96 well plate. On the day of the experiment, the DRR cells were loaded with fluorescent solution (Dulbecco's modified medium with 10% fetal bovine serum containing 4 μM Fluo-3 and 20% pluronic acid). The cells were incubated at 37 C for one hour in a humidified chamber. Following the incubation step, cells were washed five times in Hanks' with 20 mM Hepes and 0.1% BSA (pH 7.4). The cells were analyzed using the FLIPR system to measure the mobilization of intracellular calcium in response to different compounds. […]

human DRR = assay: FLIPR calcium mobilization assay (Fluo-3), HEK-293 cells expressing human DRR
Experimental: as §1, §2, §3

In the case of YGGFMRRVGRPEWWMDYOKRYG-OH [BAM-22P], the “calcium response (mobilization of intracellular calcium)” value (rat DRR; HEK-293 cells expressing clone rat DRR, FLIPR, Fluo-3, compounds dissolved at 3 μM) is reported as “consistently elicited signals”, the “dose-response relationship of calcium response” value (rat DRR; cells transfected with rat DRR) is reported as “observation of a dose-response relationship” and the “calcium response (mobilization of intracellular calcium)” value [1] is reported as “not the wild type cells”. For the same substance, the “calcium response (mobilization of intracellular calcium)” value (human DRR; HEK-293 cells expressing clone human DRR, FLIPR, Fluo-3, compounds dissolved at 3 μM) was “consistently elicited signals” and the “dose-response relationship of calcium response” value (human DRR; cells transfected with human DRR) was “observation of a dose-response relationship”.

From patent US7270965B2, “Assays to screen for compounds that bind the dorsal root receptor” (AstraZeneca AB, priority 2000, dated 2007)
